Assay results from patent publication US20200299777A1, “Methods for Resensitizing p53-Null Cells to Cancer Chemotherapy” (UNIVERSITY OF SOUTH CAROLINA, priority 2019, published 2020).

Tests used:
TP53-WT hESCs [1] = assay: Cell viability assay (resazurin), TP53 wild-type human ES cells; format: cell-based; conditions: for sensitivity of TP53-WT hESCs (cell viability): all tested concentrations
Experimental: (§1) Human H9 embryonic stem cells (ESCs) (Lot No.: WIC-WA09-MB-001, WiCell, Wisconsin) and derivatives were maintained at 37° C., 5% CO2 in chemical-defined medium TeSR-E8 medium (Stemcell Tech.) with 100 U/ml penicillin & 100 μg/ml streptomycin (Gibco) on Matrigel-coated (# CB40230A, Corning) tissue culture vessels. Authentication of H9 ESCs were performed by WiCell. ESCs were passaged every 4 to 6 days to maintain sub-confluence using 0.5 mM EDTA as described previously. Human colon cancer RKO cells (kindly given by Dr. Bert Vogelstein) and its derivatives were maintained at 37° C., 5% CO2 in McCoy's 5A media (Fisher) supplemented with 10% FBS and 100 U/ml penicillin & 100 μg/ml streptomycin (Gibco). RKO cells were passaged every 3 to 4 days to maintain sub-confluence (authentication of RKO cell line was performed by JHU-GRCF Biorepository & Cell Center). Cells were screened for mycoplasma before experiments using a MycoAlert™ Mycoplasma Detection Kit (Lonza).
(§2) NCI Approved Oncology Drug Set IV containing 127 FDA-approved anticancer drugs was obtained from the NCI under a material transfer agreement. TP53 knockout or wild-type human ES cells were seeded in 96-well microplates in E8 medium, with 6,000 cells per well that would reach about 85% confluent at the end of the assay. Human ES cells were plated one day before treatment with a 7-point two-fold dilution series (starting with 10 μM) of each compound or solvent (dimethyl sulfoxide, DMSO or Dimethylformamide, DMF) control. After 72 hours incubation, cells were stained with 35 μM resazurin (Sigma), then quantification of fluorescent signal intensity was performed on Thermo Fluorskan™ Ascent plate reader at excitation and emission wavelengths of 544/590 nm. Data were normalized to the solvent control (DMSO or DMF) group. The area under a curve (AUC) was calculated using auc function (flux package) in R. The two-side t-test was performed with tlest function in R. The hierarchical clustering analysis of drugs AUC pattern in different samples was carried out using heatmap.2 function (gplots package) in R (All R code available). Viability response curves of Cisplatin and Paclitaxel on TP53-KO hESCs or RKO cells were generated using drc package (Analysis of Dose-Response Curves) in R.

TP53-KO hESCs [2] = assay: Cell viability assay (resazurin), TP53 knockout human ES cells; format: cell-based; conditions: for sensitivity/resistance of TP53-KO hESCs (cell viability): 7-point two-fold dilution starting with 10 μM
Experimental: as §1
TP53 knockout hESCs and RKO cells were generated using CRISPR/Cas9 as described previously with minor modifications. Briefly, human codon-optimized Streptococcus pyogenes wild type Cas9 (Cas9-2A-GFP) was obtained from Addgene (#44719). Chimeric guide RNA expression cassettes with different small guide RNA, TP53_Up_sgRNA: 5′-[…]-3′ (SEQ ID NO: 1) and TP53_Down_sgRNA: 5′-[…]-3′ (SEQ ID NO: 2) were ordered as gBlock. These gBlocks were amplified by PCR using primers: gBlock_Amplifying_F: 5′-[…]-3′ (SEQ ID NO: 3) and gBlock_Amplifying_R: 5′-[…]-3′ (SEQ ID NO: 4). The PCR product was purified by Agencourt Ampure XP PCR Purification beads according to manufacturer's protocol (Beckman Coulter). 1.5 μg of Cas9 plasmid and 0.5 μg of each gRNAgBlock were co-transfected into hESCs via Lipofectamine™ 3000 (Thermo Fisher Scientific). […] For TP53-KO RKO cells, single clones were picked up and validated by PCR and Western blotting.
as §2

TP53-KO RKO cells [3] = assay: Cisplatin viability response on TP53 knockout RKO colon cancer cells; format: cell-based, human
Experimental: as §1, with “RKO cells were passaged every 3 to 4 days to maintain sub-confluence (authentication of RKO cell line was performed by JHU-GRCF Biorepository & Cell Center). Cells were screened for mycoplasma before experiments using a MycoAlert™ Mycoplasma Detection Kit (Lonza).” left out
NCI Approved Oncology Drug Set IV containing 127 FDA-approved anticancer drugs was obtained from the NCI under a material transfer agreement. […] After 72 hours incubation, cells were stained with 35 μM resazurin (Sigma), then quantification of fluorescent signal intensity was performed on Thermo Fluorskan™ Ascent plate reader at excitation and emission wavelengths of 544/590 nm. […] The area under a curve (AUC) was calculated using auc function (flux package) in R. The two-side t-test was performed with tlest function in R. The hierarchical clustering analysis of drugs AUC pattern in different samples was carried out using heatmap.2 function (gplots package) in R (All R code available). […]

TP53-KO hESCs [4] = assay: Paclitaxel and Cisplatin drug synergy experiment on TP53-KO hESCs; format: cell-based, human; conditions: low concentration Paclitaxel plus Cisplatin matrix, 72 hours, ZIP synergy model
Experimental: (§3) A Paclitaxel and Cisplatin drug matrix (12×8) in a 96-well plate was made for drug synergy experiment. Paclitaxel on row was an 11-point two-fold dilution series with starting concentration of 0.0016 μM, and Cisplatin on column was a 7-point two-fold dilution series with starting concentration of 2 μM, 5000 TP53-KO hESCs per well or 2000 TP53-KO RKO cells per well were plated on three 96-well plates one day before treatment with Paclitaxel and Cisplatin drug matrix. After 72 hours incubation for TP53-KO hESCs and 96 hours incubation for TP53-KO RKO cells, cells were stained with 35 μM resazurin (Sigma), then quantification of fluorescent signal intensity was performed on Thermo Fluorskan™ Ascent plate reader at excitation and emission wavelengths of 544/590 nm. The drug synergy scores were evaluated using ZIP model (Zero Interaction Potency model) in synergyfinder package.

TP53-KO RKO cells [5] = assay: Paclitaxel and Cisplatin drug synergy experiment on TP53-KO RKO cells; format: cell-based, human; conditions: Paclitaxel plus Cisplatin matrix, 96 hours, two TP53-KO clones, ZIP synergy model
Experimental: as §3

[6] = tested on: ZNF207/BuGZ knockout TP53-KO hESCs; assay: Validation of ZNF207/BuGZ knockout in Cas9-expressing TP53-KO hESCs treated with Cisplatin (qPCR of knockout locus); format: cell-based, human
Experimental: Human TP53 knockout embryonic stem cells were infected at low MOI by viruses produced using pCLIP-Cas9-Nuclease-EFS-Blast (TransOMIC) and selected using blastcidin (10 μg/ml). The stable Cas9-expressing TP53-KO hESCs were infected with viruses with two sgRNAs against gene ZNF207/BuGZ (# TEDH-1090944, TransOMIC) or control gene OR1C1 (# TEDH-1055091, TransOMIC). These two sgRNAs could induce fragment deletion. We treated these cells with either 200 nM Cisplatin or vehicle DMF. We used realtime quantitative PCR to quantify the ZNF207 knockout locus, using gRNA flanking primers that only amplify when the intervening sequence has been deleted.
The relative percentage of ZNF207 or OR1C1 knockout cell number was defined as:
2^−ΔCT(Gene−LINE)/2^−ΔCT(Gene−LINE) at Day0.

TP53-WT hESCs [7] = assay: Cell viability assay (resazurin), TP53 wild-type human ES cells; format: cell-based; conditions: 200 nM
[8] = 72 hours, resazurin, low concentrations

SMILES	sensitivity of TP53-WT hESCs (cell viability) (TP53-WT hESCs [1]; 72 hours, resazurin)	sensitivity/resistance of TP53-KO hESCs (cell viability) (TP53-KO hESCs [2]; 72 hours, resazurin)	sensitivity of TP53-WT hESCs at low concentration (cell viability) (TP53-WT hESCs [1]; 72 hours, resazurin)	further results
CCCCCOC(=O)Nc1nc(=O)n([C@@H]2O[C@H](C)[C@@H](O)[C@H]2O)cc1F [Capecitabine]	resistant	resistant		
N.N.O=C([O-])C1(C(=O)[O-])CCC1.[Pt+2] [Carboplatin]		resistant	very sensitive	
N.N.[Cl][Pt][Cl] [Cisplatin]		resistant	very sensitive	resistance of TP53-KO hESCs at the optimal concentration (TP53-KO hESCs [2]; 200 nM): very resistant; resistance of TP53-KO RKO cells compared to TP53-WT RKO cells (TP53-KO RKO cells [3]): resistant; inhibition of Cisplatin on TP53-KO hESCs in combination with Paclitaxel (TP53-KO hESCs [4]): increased; inhibition of Cisplatin on TP53-KO RKO cells in combination with Paclitaxel (TP53-KO RKO cells [5]): increased greatly; sensitivity of ZNF207/BuGZ knockout TP53-KO hESCs ([6]; 200 nM vs vehicle DMF, two more TP53-KO hESC lines): more sensitive; depletion of ZNF207/BuGZ knockout cells versus DMF vehicle control ([6]; 200 nM, ten days, qPCR at day 6 and 10): depleted faster; sensitivity of TP53-WT hESCs at the optimal concentration (TP53-WT hESCs [7]): very sensitive
CC(=O)O[C@@]12CO[C@@H]1C[C@H](O)[C@@]1(C)C(=O)[C@H](O)C3=C(C)[C@@H](OC(=O)[C@H](O)[C@@H](NC(=O)OC(C)(C)C)c4ccccc4)C[C@@](O)([C@@H](OC(=O)c4ccccc4)[C@H]21)C3(C)C [Docetaxel]	sensitive	sensitive		
O=c1[nH]cc(F)c(=O)[nH]1 [Fluorouracil]				sensitivity of TP53-WT hESCs at high concentrations (TP53-WT hESCs [1]; 72 hours, resazurin, high concentrations): sensitive; resistance of TP53-WT hESCs at low concentrations (TP53-WT hESCs [1]; [8]): resistant; resistance of TP53-KO hESCs at low concentrations (TP53-KO hESCs [2]; [8]): resistant
CCc1c2c(nc3ccc(OC(=O)N4CCC(N5CCCCC5)CC4)cc13)-c1cc3c(c(=O)n1C2)COC(=O)[C@]3(O)CC [Irinotecan]		resistant		sensitivity of TP53-WT hESCs at low concentration (0.16 μM) (TP53-WT hESCs [1]; 72 hours, resazurin): very sensitive
COc1ccc(C2=N[C@@H](c3ccc(Cl)cc3)[C@@H](c3ccc(Cl)cc3)N2C(=O)N2CCNC(=O)C2)c(OC(C)C)c1 [Nutlin-3a]				growth inhibitory effect on TP53-WT hESCs (TP53-WT hESCs [1]; very low concentrations): severely growth arrested
O=C(c1cc(Cc2n[nH]c(=O)c3ccccc23)ccc1F)N1CCN(C(=O)C2CC2)CC1 [Olaparib]		resistant	very sensitive	
O=C1[O][Pt]2([NH][C@@H]3CCCC[C@H]3[NH]2)[O]C1=O [Oxaliplatin]		resistant		sensitivity of TP53-WT hESCs at low concentration (0.16 μM) (TP53-WT hESCs [1]; 72 hours, resazurin): very sensitive
CC(=O)O[C@H]1C(=O)[C@@]2(C)[C@H]([C@H](OC(=O)c3ccccc3)[C@]3(O)C[C@H](OC(=O)[C@H](O)[C@@H](NC(=O)c4ccccc4)c4ccccc4)C(C)=C1C3(C)C)[C@]1(OC(C)=O)CO[C@@H]1C[C@@H]2O [Paclitaxel]	sensitive	sensitive		
